Experimental data: PMC4868737, “BAY 1024767 blocks androgen receptor mutants found in castration-resistant prostate cancer patients” (Oncotarget, 2016)
Changes are numbered by the printed parent chain.

Columns and labels:
[1] = In vivo pharmacokinetics in male NMRI mice; conditions: mouse, plasma
Method: BAY 1024767 was administered to 6-7 week-old male NMRI mice in the tail vein by a single dose of 0.5 mg/kg and intragastral by a single dose of 1 mg/kg formulated in PEG400/water (60/40). Three mice were sacrificed at different time points after dosing, and blood (for heparinized plasma) was sampled from the vena cava. Analysis of the samples was performed by LC/MS/MS and pharmacokinetic parameters were calculated by non-compartmental analysis.

AR W741C = target: T1, AR W741C (Homo sapiens, UniProt P10275, W742C); experiment: cell-based; conditions: IC50 (antagonistic activity)
T1 sequence (P10275 1-920 W742C): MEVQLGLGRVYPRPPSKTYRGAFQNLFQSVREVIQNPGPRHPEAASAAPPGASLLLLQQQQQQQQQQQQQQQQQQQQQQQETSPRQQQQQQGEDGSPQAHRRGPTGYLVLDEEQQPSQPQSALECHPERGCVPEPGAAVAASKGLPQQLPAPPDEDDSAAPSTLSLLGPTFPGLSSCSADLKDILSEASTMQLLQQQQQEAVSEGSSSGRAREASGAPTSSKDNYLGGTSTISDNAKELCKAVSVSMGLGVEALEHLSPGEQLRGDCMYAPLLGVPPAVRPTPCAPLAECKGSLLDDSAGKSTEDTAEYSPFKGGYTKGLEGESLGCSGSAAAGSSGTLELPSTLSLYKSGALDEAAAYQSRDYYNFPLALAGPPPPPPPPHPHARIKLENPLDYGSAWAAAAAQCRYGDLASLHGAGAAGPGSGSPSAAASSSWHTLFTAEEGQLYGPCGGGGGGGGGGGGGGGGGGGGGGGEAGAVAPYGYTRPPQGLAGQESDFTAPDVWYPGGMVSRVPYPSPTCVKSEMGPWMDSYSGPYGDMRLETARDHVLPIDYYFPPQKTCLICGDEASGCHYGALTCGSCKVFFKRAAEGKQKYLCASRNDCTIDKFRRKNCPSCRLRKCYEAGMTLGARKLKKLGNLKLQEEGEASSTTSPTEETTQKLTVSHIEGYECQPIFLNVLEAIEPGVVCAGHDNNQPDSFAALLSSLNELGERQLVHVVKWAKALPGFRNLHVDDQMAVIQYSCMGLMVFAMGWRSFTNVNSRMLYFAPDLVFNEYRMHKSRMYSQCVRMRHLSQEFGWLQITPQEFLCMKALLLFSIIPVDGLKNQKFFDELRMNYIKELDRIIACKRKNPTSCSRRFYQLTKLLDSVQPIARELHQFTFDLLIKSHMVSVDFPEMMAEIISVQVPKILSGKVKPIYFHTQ

AR F876L = target: T2, AR F876L (Homo sapiens, UniProt P10275, F877L); experiment: cell-based; conditions: IC50 (antagonistic activity)
T2 sequence (P10275 1-920 F877L): T1 sequence (P10275 1-920 W742C) with C742W, F877L

[2] = system: AR wild-type and the mutants E709Y, V715M, W741C and H874Y; experiment: Immunofluorescence of AR sub-cellular localization in transfected COS-7 cells; conditions: 4 h
Method: For staining, culture medium was removed and the cells were washed three times with PBS. […] The cells were then washed, stained with 300 nM DAPI in PBS for 5 min, and sealed with a coverslip. Cells were imaged on an LSM700 confocal laser scanning microscope (Zeiss, Göttingen, Germany), using a 25X objective. Quantification of COS-7 cells was performed on 25 cells in two replicates using ImageJ software.

`CC(C)(O)COc1ccc(CN2C(=S)N(c3ccc(C#N)c(C(F)(F)F)c3)C(=O)C2(C)C)cn1` [BAY 1024767] showed a clearance ([1]; iv, 0.5 mg/kg i.v., read-out: CLB (blood clearance) (converted)) of 1 mL/min/kg, a Vd ([1]; iv, 0.5 mg/kg i.v., read-out: VSS (volume of distribution)) of 0.61 L/kg and a bioavailability ([1]; oral, 1 mg/kg intragastral vs 0.5 mg/kg i.v., read-out: F (oral bioavailability)) of 99%. The IC50 (AR W741C; R1881 0.1 nM) was 49 nM, the IC50 (AR W741C; R1881 1 nM) was 190 nM and the IC50 (AR W741C; R1881 10 nM) was 890 nM. The IC50 (AR F876L; R1881 0.1 nM) was 106 nM, the IC50 (AR F876L; R1881 1 nM) was 293 nM and the IC50 (AR F876L; R1881 10 nM) was 2060 nM. For the same compound, the “AR nuclear translocation in the presence of R1881” value ([2]; 1 nM R1881, 1 μM BAY 1024767) was “did not prevent nuclear translocation” and the “AR nuclear localization in the absence of R1881” value ([2]; 1 μM BAY 1024767 or 5 μM enzalutamide) was “promoted nuclear localization”.
